Data from US6589758B1, “Crystal of a kinase-ligand complex and methods of use” (priority 2000, dated 2003).
Like-named read-outs stand apart in the source and are kept apart here. One block for each compound: values may come before it.

Columns and labels:
[1] = test system: TCR-induced IL-2 secretion from hPBL T-cells; test: T-cell activation: TCR-induced IL-2 secretion from hPBL T-cells (ELISA); type: cell-based; settings: anti-CD3/anti-CD28 stimulation, 20 hours, FIG. 7B, read-out: IC50 inhibition of IL-2 production in human T-cell cultures
Experimental: T-cell activation. Whole blood was obtained from normal donors and human peripheral blood lymphocytes (hPBL) were isolated by ficol-hypaque density centrifugation. T-cells were then purified from the hPBL by negative selection using an R&D column following the manufacturers directions (R&D Systems, Minneapolis, Minn.). A 96-well flat-bottomed plate was coated with 10 μg/ml of goat anti-mouse (GAM)-IgG1 (Caltag, Burlingame, Calif.) in PBS overnight at 4C. The GAM-coated plate was flicked out and anti-CD3 mAb (UCHT-1, Coulter/Immunotech, Miami, Fla.) is added at 0.2 μg/ml in AIMV medium (Gibco, Grand Island, N.Y.) for 3 hr. at 37C. Purified T-cells were pre-incubated at 1×10^5/well in AIM V with or without compound for 30 minutes then transferred to the anti-CD3 capture plate. Finally, anti-CD28 (Pharmingen, San Diego, Calif.) in AIMV (150 ng/ml final) was added to each well. Cells were incubated for 20 hours at 37C in 5% CO2 then supernatants were tested by ELISA for cytokine levels (Endogen, Woburn, Mass.).

ZAP-70 = biological target: T1, ZAP-70 (Homo sapiens, UniProt P43403); settings: reported in ref [51]; read-out: IC50 against ZAP-70; cited from earlier work
T1 sequence (P43403 1-619): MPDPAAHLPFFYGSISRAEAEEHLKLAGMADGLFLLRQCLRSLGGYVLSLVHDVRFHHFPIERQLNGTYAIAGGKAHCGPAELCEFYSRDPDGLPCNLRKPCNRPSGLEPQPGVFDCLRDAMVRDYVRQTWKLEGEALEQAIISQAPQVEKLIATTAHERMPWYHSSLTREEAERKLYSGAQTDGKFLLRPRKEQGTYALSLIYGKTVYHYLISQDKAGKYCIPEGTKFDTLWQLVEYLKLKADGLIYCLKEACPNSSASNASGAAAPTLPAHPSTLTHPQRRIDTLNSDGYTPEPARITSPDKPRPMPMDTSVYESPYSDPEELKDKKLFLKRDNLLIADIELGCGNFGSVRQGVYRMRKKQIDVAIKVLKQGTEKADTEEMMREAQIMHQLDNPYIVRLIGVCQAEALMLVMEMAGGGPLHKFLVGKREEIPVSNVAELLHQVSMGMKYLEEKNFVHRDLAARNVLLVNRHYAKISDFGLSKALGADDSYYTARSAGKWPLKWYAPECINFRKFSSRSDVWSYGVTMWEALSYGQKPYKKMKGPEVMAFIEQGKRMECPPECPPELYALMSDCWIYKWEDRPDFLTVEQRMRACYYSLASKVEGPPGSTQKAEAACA

[2] = test system: TCR-induced phosphotyrosine incorporation into TCR p23 ζ-chain and a 70 kDa protein, Jurkat cells; type: cell-based; settings: FIG. 7C
Experimental: Phosphotyrosine western blotting. […] Cells were then transferred to 37° C. water bath for 1 minute. Stimulation was stopped by the addition of 5 volumes of cold PBS containing 200 μM sodium orthovanadate. Cells were spun down and lysed in 150 mM Tris/10 mM HEPES buffer, pH 7.3, containing 1% Triton X-100 and Complete protease inhibitor cocktail (Boehringer Mannheim, Germany) for 30 minutes on ice. […] Blots were probed with anti-phosphotyrosine (4G10, Upstate Biotechnology, Inc., Saranac Lake, N.Y.) and developed using ECL-plus following the manufacturers directions (Amersham, Arlington Heights, Ill.).

Lck = Lck (Homo sapiens, UniProt P06239); settings: reported in ref [51]; cited from earlier work
Sequence of Lck (P06239 whole entry, species assumed): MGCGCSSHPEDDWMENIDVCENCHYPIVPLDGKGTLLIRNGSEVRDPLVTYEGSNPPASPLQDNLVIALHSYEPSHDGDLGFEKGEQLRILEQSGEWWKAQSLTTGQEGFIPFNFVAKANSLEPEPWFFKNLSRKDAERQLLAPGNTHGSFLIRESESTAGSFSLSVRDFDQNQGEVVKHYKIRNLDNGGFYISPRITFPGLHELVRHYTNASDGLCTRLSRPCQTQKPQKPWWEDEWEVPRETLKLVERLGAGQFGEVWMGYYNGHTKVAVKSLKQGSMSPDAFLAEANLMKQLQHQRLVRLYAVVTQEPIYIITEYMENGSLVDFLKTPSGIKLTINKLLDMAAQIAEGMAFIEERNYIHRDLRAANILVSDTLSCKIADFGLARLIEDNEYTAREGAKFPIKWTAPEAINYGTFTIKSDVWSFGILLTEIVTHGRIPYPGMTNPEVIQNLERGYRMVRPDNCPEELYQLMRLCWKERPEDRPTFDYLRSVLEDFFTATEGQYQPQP

IC50 [1]: 600 nM
SMILES: CC(C)(C)n1nc(-c2ccc(Cl)cc2)c2c(N)ncnc21 [PP2]
IC50 (ZAP-70): ≥ 100000 nM
inhibition of Lck-dependent phosphorylation of the TCR ζ-chain (p23) [2]: dose-dependent inhibition
inhibition of phosphorylation of a 70 kD protein (likely ZAP-70) [2]: inhibited

SMILES: CN[C@@H]1C[C@H]2O[C@@](C)([C@@H]1OC)n1c3ccccc3c3c4c(c5c6ccccc6n2c5c31)C(=O)NC4 [staurosporine]
IC50 ([1]; Homo sapiens, T-cell): 60 nM

SMILES: Cc1ccc(-c2nn(C(C)(C)C)c3ncnc(N)c23)cc1 [PP1]
inhibitory activity against Lck compared with PP2 (Lck): approximately the same inhibitory activity
